The results in this text go back to US11261186B2, “Biaryl derivative as GPR120 agonist” (LG CHEM, LTD., priority 2014, dated 2022).

For the experiment, the target named is T1, hGPR120 (Homo sapiens, UniProt Q5NUL3).
T1 construct: expressed in transfected cells; host or cells: CHO-K1
T1 sequence (Q5NUL3 1-361): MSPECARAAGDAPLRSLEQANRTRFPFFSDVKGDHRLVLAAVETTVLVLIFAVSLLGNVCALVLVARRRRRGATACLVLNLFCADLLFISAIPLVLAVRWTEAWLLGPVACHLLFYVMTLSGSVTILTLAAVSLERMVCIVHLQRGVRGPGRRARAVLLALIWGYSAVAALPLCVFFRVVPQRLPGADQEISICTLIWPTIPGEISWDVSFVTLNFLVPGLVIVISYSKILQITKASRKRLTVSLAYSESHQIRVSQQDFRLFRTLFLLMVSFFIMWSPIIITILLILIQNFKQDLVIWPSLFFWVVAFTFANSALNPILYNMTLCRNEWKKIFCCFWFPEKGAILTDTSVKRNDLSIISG
The experiment is described as follows: Measurement of Activity of GPR120 Agonist (Cell-Based Assay), Calcium 5 dye fluorescence. The settings on record: CHO-K1 cells expressing Ga16 and hGPR120. In a few lines: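 CHO-K1 cells co-expressing Gα16 and hGPR120 were seeded, cultured 18 h at 37 °C, then loaded 1 h with Calcium 5 dye. Serially diluted agonists (final 0.5% DMSO) were added and fluorescence read at Ex 485/Em 525 nm, expressed as percent relative to 1% DMSO-only wells.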

As usually defined, the EC50 is the concentration giving half of the maximal effect. In the case of `Oc1cc(COc2c(F)cc(-c3cccnc3SC3CCCC3)cc2F)on1` [Example 65, 5-[[4-(2-cyclopentylsulfanyl-3-pyridyl)-2,6-difluoro-phenoxy]methyl]isoxazol-3-ol], the concentration for a half-maximal effect (EC50) was < 0.2 µM.
In the case of `O=C(O)CC1CCN(c2c(F)cc(-c3cccc(C4CCCC4)n3)cc2F)CC1` [Example 317, 2-[1-[4-(6-cyclopentyl-2-pyridyl)-2,6-difluoro-phenyl]-4-piperidyl]acetic acid], the EC50 lay in the range of 0.2 to 2 µM.
Turning to `CCCOc1cccc(-c2ccc3c(c2)CCC(CCC(=O)O)O3)n1` (stereo not shown) [Example 556, 3-[6-(6-propoxy-pyridin-2-yl)-chroman-2-yl]-propionic acid], the half-maximal effective concentration (EC50) is < 0.2 µM.
Regarding `O=C(O)CC1CN(c2c(F)cc(-c3nccc(OCC4CC4)n3)cc2F)C1` [Example 337, 2-[1-[4-[4-(cyclopropylmethoxy)pyrimidin-2-yl]-2,6-difluoro-phenyl]azetidin-3-yl]acetic acid], the EC50 was < 0.2 µM.
Turning to `CC(C)Sc1cccc(-c2cc(F)c(N3CCC(CC(=O)O)CC3)c(F)c2)n1` [Example 105, 2-[1-[2,6-difluoro-4-(6-isopropylsulfanyl-2-pyridyl)phenyl]-4-piperidyl]acetic acid], the EC50 is < 0.2 µM.
With `COc1cncc(-c2cc(F)c(N3CCC(CC(=O)O)C3)c(F)c2)n1` (stereo not shown) [Example 584, {1-[2,6-difluoro-4-(6-methoxy-pyrazin-2-yl)-phenyl]-pyrrolidin-3-yl}-acetic acid], the EC50 was in the range of 0.2 to 2 µM.
As for `Cc1ccc(Oc2ccnc(-c3cc(F)c(N4CCC(CC(=O)O)CC4)c(F)c3)n2)cc1` [Example 516, 2-[1-[4-[4-(p-tolyloxy)pyrimidin-2-yl]-2,6-difluoro-phenyl]-4-piperidyl]acetic acid], the EC50 is < 0.2 µM.
For `O=C(O)CCCOc1c(F)cc(-c2cc(OC3CCC3)cc(Cl)n2)cc1Cl` [Example 424, 4-[2-chloro-4-(6-chloro-4-cyclobutoxy-pyridin-2-yl)-6-fluoro-phenoxy]-butyric acid], the EC50 was < 0.2 µM.
As for `CN(CCCC(=O)O)c1c(F)cc(-n2ccc3cccc(Cl)c32)cc1F` [Example 475, 4-[4-(7-chloroindol-1-yl)-2,6-difluoro-N-methyl-anilino]butanoic acid], the figure is < 0.2 µM; as for `COc1ccc(-c2ccc(C(F)(F)CCCC(=O)O)cc2)nc1OC1CCC1` [Example 464, 5-[4-[6-(cyclobutoxy)-5-methoxy-2-pyridyl]phenyl]-5,5-difluoro-pentanoic acid], < 0.2 µM; as for `O=C(O)CCC1CCc2cc(-c3cccnc3OCC3CC3)ccc2S1` (stereo not shown) [Example 279, 3-[6-(2-cyclopropylmethoxy-pyridin-3-yl)-thiochroman-2-yl]-propionic acid], < 0.2 µM.
Turning to `O=C(O)CCCOc1c(F)cc(-c2cccc(OC3CCCC3)n2)cc1Cl` [Example 400, 4-[2-chloro-4-(6-cyclopentyloxy-pyridin-2-yl)-6-fluoro-phenoxy]-butyric acid], the EC50 was < 0.2 µM.
Turning to `CC(CCCC(=O)O)c1c(F)cc(-c2cc(Cl)cc3c2OC(C)(C)C3)cc1F` (stereo not shown) [Example 256, 5-[4-(5-chloro-2,2-dimethyl-2,3-dihydro-benzofuran-7-yl)-2,6-difluoro-phenyl]-hexanoic acid], the EC50 fell in the range of 0.2 to 2 µM.
With `O=C(O)CCCOc1c(F)cc(-c2ccc(F)c(OCC3CC3)c2)cc1F` [Example 527, 4-(3′-cyclopropylmethoxy-3,5,4′-trifluoro-biphenyl-4-yloxy)-butyric acid], the EC50 was < 0.2 µM.
As to `CCCOc1cccc(-c2cc(F)c(OCc3cc(O)no3)c(F)c2)n1` [Example 73, 5-[[2,6-difluoro-4-(6-propoxy-2-pyridyl)phenoxy]methyl]isoxazol-3-ol], the EC50 was < 0.2 µM.
As to `O=C(O)CC1CCN(c2c(F)cc(-c3nccc(Oc4cccc(F)c4)n3)cc2F)CC1` [Example 607, 2-[1-[4-[4-(3-fluorophenoxy)pyrimidin-2-yl]-2,6-difluoro-phenyl]-4-piperidyl]acetic acid], the EC50 was < 0.2 µM.
